≈ marks a conversion by molar mass, not a printed value. Like-named read-outs stand apart in the source and are kept apart here.
Columns and labels:
[1] = tested on: multidrug resistant Pf K1; set-up: method as in Beteck et al., 2018; conditions: ref Beteck et al., 2018; read-out: IC50 against multidrug resistant Pf K1; cited from earlier work
[2] = pH range of 4–9; ref EFSA 2003; cited from earlier work
Pf NF54 = conditions: ref Beteck et al., cited from earlier work
[3] = cited from earlier work
[4] = set-up: method as in Wang et al., 2014; conditions: dosed as a micro-suspension in mice; ref Wang et al., 2014; cited from earlier work
[5] = tested on: P. berghei sporozoite liver stages; conditions: abstract; no reference given; cited from earlier work
[6] = Passive permeability, parallel artificial membrane permeation assay (PAMPA); format: in vitro ADME; conditions: donor pH 6.5, acceptor pH 7.4, 4 h, read-out: Permeability (LogPapp) (converted)
Method: A parallel artificial membrane permeation assay (PAMPA) was used to assess the passive permeability of compounds with a 96-well MultiScreen filter plate ([…] pore size, Millipore). The filter plate was precoated with 5% hexadecane in hexane. Stock solutions of compounds were diluted to 1 mM in a donor buffer (pH 6.5). Lucifer yellow was added to the apical wells of the precoated MultiScreen plate containing compound donor solution. The donor buffer solutions were spiked with each test compound (1 mM). The acceptor-buffer solution was prepared by adding 10 μL DMSO to 990 μL acceptor buffer (pH 7.4) and 250 μL were added to the basolateral (acceptor) wells. The donor plate was carefully inserted into the acceptor plate and incubated at room temperature for 4 h. After the incubation period, 50 μL of samples from the acceptor plate were transferred to a round bottom 96-well plate, together with 30 μL of donor buffer for matrix matching. Theoretical equilibrium samples for each test compound were prepared by adding 150 μL of donor solutions to 250 μL acceptor solutions and left at room temperature. These theoretical equilibrium samples represent complete transfer of the compound into the donor well. For the theoretical equilibrium samples, 80 μL were added to the analysis plate. Lastly, 160 μL of the internal standard carbamazepine (0.1 μM) was added to all acceptor and equilibrium samples. A portion of the sample containing Lucifer yellow was analyzed on a BioRad iMark^TM Microplate Absorbance Reader (BioRad, Hercules, CA, United States; excitation 490 nm, emission 510–570 nm) to determine that P app was within the acceptable range (<50 nm/s). Samples were analysed using reverse phase Gemini NX-C18 column (5 μM, 2.1 mm × 50 mm) with a Shimadzu HPLC coupled with an AB Sciex 3200 Q TRAP MS). The Papp for each compound was determined using. C=VD × VA/(VD+VA) ×A×t where VA = volume of donor compartment (0.15 cm^3), VD = volume of acceptor compartment (0.25 cm^3), A = accessible filter area (0.24 cm^2) and t = incubation time (14,400 s). […]

Neospora caninum = tested on: Neospora caninum; set-up: method as in Beteck et al., 2018; conditions: in vitro; ref Beteck et al., 2018; read-out: IC50 against Neospora caninum; cited from earlier work
Plasma stability = format: in vitro ADME; conditions: human plasma
Method: Stock solutions of compounds in DMSO were used to spike pooled human plasma. Samples were transferred in duplicate to 6 different wells of a 96-deep well plate. An aliquot of each sample was immediately quenched with ice cold acetonitrile containing the internal standard carbamazepine (0.1 μM), after which the plate was incubated in a water bath (37°C for 1 h). Aliquots of samples were removed at 5, 15, 40, 60, and 180 min and quenched with ice cold acetonitrile. After samples of the final time point were precipitated, the supernatant was transferred to a round bottom 96-well plate for analysis by LC-MS/MS using a reverse phase Gemini NX-C18 column (5 μM, 2.1 mm × 50 mm) with a Shimadzu HPLC coupled with an AB Sciex 3200 Q TRAP MS). The peak area ratios were used to calculate the amount of parent compound remaining and t1/2 in plasma, using the following equations.
% Parent remaining % Parent= Normalised peak area of sample at timepoint/Normalised peak area of sample at t=0 x 100
Predicted t1/2 t1/2= −0.693/λ Where λ is the slope of the Ln % parent remaining vs. time curve.

[7] = tested on: multidrug resistant Pf W2; set-up: method as in Beteck et al., 2018; conditions: ref Beteck et al., 2018; read-out: Activity against multidrug resistant Pf W2; cited from earlier work
Toxoplasma gondii (Tg) = tested on: Toxoplasma gondii (Tg); set-up: method as in Beteck et al., 2018; conditions: in vitro; ref Beteck et al., 2018; read-out: IC50 against Toxoplasma gondii; cited from earlier work
[8] = Metabolic stability in mouse liver microsomes; format: in vitro ADME
Method: (§1) A 5-point metabolic stability assay in human and mouse liver microsomes were performed in duplicate in 96-well plates. Stock solution of RMB005, −059 and 060 prepared in DMSO were individually incubated at 37°C in mouse and pooled human liver microsomes (0.4 mg/mL). An aliquot was removed at 0 min and quenched with ice cold acetonitrile containing the internal standard carbamazepine (0.1 μM). The cofactor NADPH was added, and the reactions were subsequently stopped at time points 5, 10, 30, and 60 min by removal of an aliquot and quenching with ice cold acetonitrile containing the internal standard. The supernatant of all samples were analysed via LC-MS/MS analysis (reverse phase Gemini NX-C18 column and Shimadzu HPLC and AB Sciex 3200 Q TRAP MS). Calculation of in vitro t1/2, intrinsic clearance rate (CLint) and predicted in vivo clearance (CLH) was carried out using the following equations ([Obach 1999]). CLintClint= 0.693/t1/2(min) ×Volume of incubation (μL)/microsomal protein (μg) Where t1/2 is calculated in minutes.
(§2) Predicted in vivo CLH CLH=Q × fu(plasma)×CLint/fu(mic)/Q+ fu(plasma)× CLint/fu(mic) Where Q is the hepatic blood flow of mouse (90 mL/min/kg) or human (20.7 mL/min/kg). Fu(plasma) is the unbound drug fraction in the plasma and fu(mic) is the unbound fraction in the microsomes.
(§3) The equation below was used in the case of RMB059 and -060, where protein-binding data were not available. CLH=Q × CLint/Q+ CLint

[9] = Lipophilicity, 1-octanol/phosphate buffer pH 7.4 (LogD7.4); format: physicochemical
Method: Stock solutions ([…]) of compounds were diluted to 100 μM in 96-well deep-well plate containing 1-octanol and phosphate buffer at pH 7.4. The plate was agitated on an orbital shaker at 750 rpm for 2 h. The organic and buffer layers of each well were transferred separately to a new analysis plate. The samples were analysed with the HPLC-diode array detection as described for kinetic solubility. Samples from both layers were analysed to determine LogD7.4 values.

[10] = Metabolic stability in human liver microsomes; format: in vitro ADME
Method: as §1, §2, §3

[11] = cited from earlier work; remark: listed apart in the source
[12] = set-up: method as in Tanner et al., 2019; conditions: ref Tanner et al., 2019; cited from earlier work
[13] = 2018, read-out: IC50 against Pf NF54
[14] = *protein binding data not included

For `CCCCCCCCCCOc1cc2c(O)c(C(=O)OCC)cnc2cc1OCC` [DQ, decoquinate], the IC50 [1] is listed as 64.9 nM, the “Solubility in buffered aqueous solutions” value [2] is listed as 0.024 µM (≈ 0.01 µg/mL) and the “Solubility in buffered water” value [2] is listed as 0.01 µg/mL (≈ 0.0239 µM). The IC50 (Pf NF54; Pf NF54, 2018, read-out: NF54 IC50 (line in the PK figures, in vitro IC50 in the discussion)) was 26 nM, the IC50 (Pf NF54; 2016, read-out: In vitro activity against chloroquine-sensitive NF54 asexual parasites) was 26.6 nM and the IC50 (Pf NF54; [13]) was 26.6 nM. The “Octanol/water partition coefficient (Log Kow or LogP)” value ([3]; 25°C, pH 5, 7, or 9, ref Bampidis et al., 2019) was at least 5.7, the LogD ([3]; ref Burger et al., 2018) was 7.8 and the “Relative BA” value [4] was 6%.

In the case of `CCCCCCCCCCOc1cc2c(OC(=O)N3CCN(S(C)(=O)=O)C3=O)c(C(=O)OCC)cnc2cc1OCC` [RMB060], the IC50 [1] is given as 1.3 nM, the “Activities against P. berghei sporozoite liver stages (in words)” value [5] is given as “sub-nanomolar” and the IC50 (Pf NF54; [13]) is given as 1.4 nM. For the same compound, the Papp at 4 h, 1 mM [6] was 0.501 ×10⁻⁶ cm/s, the IC50 (Neospora caninum) was 0.6 nM and the “Plasma stability (in words)” value (Plasma stability) was “high degree of lability”. For the same compound, the half-life (Plasma stability; pooled plasma, 37°C) was under 8 min, the IC50 [7] was 1.1 nM and the IC50 (Toxoplasma gondii (Tg)) was 1.1 nM. The “Estimated in vivo CLH MLM” value [8, 14] was 77.2* mL/min/kg, the half-life ([8]; mouse liver microsomes, NADPH, read-out: Degradation half-life MLM) was 14.5 min and the CLint scaled ([8]; mouse, liver microsomes, calculated from t1/2 in MLM, read-out: In vitro CLint MLM) was 541 mL/min/kg. For the same compound, the logD at 2 h [9] was 2.9, the “Estimated in vivo CLH HLM” value [10, 14] was 18.6* mL/min/kg and the CLint scaled ([10]; human, pooled liver microsomes, calculated from t1/2 in HLM, read-out: In vitro CLint HLM) was 183 mL/min/kg. The half-life ([10]; pooled liver microsomes, human liver microsomes, NADPH, read-out: Degradation half-life HLM) was 13.1 min.

In the case of `CCCCCCCCCCOc1cc2c(=O)c(C(=O)NCCOCCO)cn(CCO)c2cc1OCC` [RMB073], the Plasma half-life [11] is given as “greater than 6 h” and the “Predicted kinetic solubility at pH 7.4” value [12] is given as over 150 µM.

Reference: paper PMC9450014, “The evaluation of ADME and pharmacokinetic properties of decoquinate derivatives for the treatment of malaria” (Frontiers in Pharmacology, 2022)
